Measured values as given in patent US20210179623A1, “NEW CHEMICAL COMPOUND CONTAINING ACTIVE ENANTIOMETER S-(-) KETOROLAC TROMETHAMINE FOR THE TREATMENT OF PAIN” (priority 2017, published 2021).
Where two headings read alike, the source gives them in different places.

Key:
[1] = test system: rat population; settings: rats, oral route; FIG. 7
[2] = test system: gouty arthritis-type pain; experiment: PIFIR pain-induced functional impairment model in the rat; type: in vivo, male Wistar rats; settings: for MAXIMUM EFFICACY (ABC: X ± E.E.): dose of each analgesic (mg/kg); for Emax reached in the temporal curve / latency in reaching the Emax in the temporal curve: highest doses; for RELATIVE EFFICACY: relative to maximum efficacy of rac-ketorolac
Source text: In order to determine and compare the antinociceptive effects of these analgesics the preclinical experimental model of PIFIR “pain-induced functional impairment model in the rat” was used.

[3] = test system: plasmatic proteins; settings: cited from earlier work
[4] = cited from earlier work
[5] = doses needed to generate 50% of the most effective effect, oral route

Compound	lethal dose 50 (LD50) [1]	effective dose 50 (ED50, 50% of its own maximum effect) ([2]; PIFIR model, rats, oral route, FIG. 6)	MAXIMUM EFFICACY (ABC: X ± E.E.) ([2]; PIFIR model, rats, oral route)	ED60 (mg/kg, oral route) (with regard to Emax: 324 au) ([2]; PIFIR model, rats) [mg/kg]	times more potent than acetylsalicylic acid [2, 5] [times]	times more potent than morphine [2, 5] [times]	times more potent than rac-ketorolac [2, 5] [times]	fixed effect 4 hours after administration ([2]; higher doses, oral route, 4 hours)	Emax reached in the temporal curve ([2]; oral route)	latency in reaching the Emax in the temporal curve ([2]; oral route)	bonds with plasmatic proteins [3] [%]	onset of the analgesic effects after administration ([4]; any presentation) [min]	excreted renally as a conjugated metabolite ([4]; in vivo) [%]	excreted renally as a hydroxylated metabolite ([4]; in vivo) [%]	excreted renally as the unaltered drug ([4]; in vivo) [%]	metabolized in the liver by conjugation ([4]; inactive metabolites) [%]	time of maximum level ([4]; intravenous and intramuscular use)	time of maximum level ([4]; oral administration, tablets or capsules) [h]	RELATIVE POTENCY (relative to 5-ketorolac) ([2]; PIFIR model, rats, oral route)	RELATIVE EFFICACY ([2]; PIFIR model, rats, oral route)
2-amino-2-hydroximethyl-1,3 propanediol (1:1) S-(−)-5-benzoyl-2,3-dihydro-1H-pyrrolizine-1-carboxylate [S-(−)-ketorolac tromethamine]	smaller than the acetylsalicylic acid, but larger than the one reported for rac-ketorolac and morphine	less than the rest of the active substances being studied	310.5 ± 13.5	0.36 ± 1.0	1037	82	3.3	the same as that exhibited for rac-ketorolac and by morphine but higher than that exhibited by acetylsalicylic acid	Emax similar to that exhibited by rac-ketorolac and morphine, but this Emax was higher than that exhibited by acetylsalicylic acid	latency similar to that exhibited by rac-ketorolac, but less than that exhibited by morphine	–	–	–	–	–	–	–	–	–	–
O=C(c1ccccc1)c1ccc2n1CCC2C(=O)O (racemic) [rac-ketorolac, ketorolac tromethamine]	–	–	324.6 ± 7.8	1.19 ± 1.2	–	–	–	–	–	–	99	30	21.9	11.5	60.2	21	first and second hour	3	−3.3	1.0
CC(=O)Oc1ccccc1C(=O)O [Acetylsalicylic Acid, acetylsalicylic acid]	–	–	226.6 ± 11.7	373.3 ± 1.7	–	–	–	–	smaller than those exhibited by the other analgesics	least latency in reaching its Emax	–	–	–	–	–	–	–	–	−1,036.9	0.70
CN1CC[C@]23c4c5ccc(O)c4O[C@H]2[C@@H](O)C=C[C@H]3[C@H]1C5 [Morphine, morphine]	–	–	310.8 ± 8.9	29.35 ± 1.1	–	–	–	–	–	–	–	–	–	–	–	–	–	–	−81.5	1.0
